Consider one compound from patent US7105730B1, “Nucleic acid molecules and other molecules associated with sterol synthesis and metabolism” (Monsanto Technology L.L.C., priority 1999, dated 2006).

The assay has as its system HES1 (YOR237W) transcript in wild type yeast LPY9. Description: Yeast transcript profiling by array hybridization after ketoconazole treatment. The format is cell-based, Saccharomyces cerevisiae. The following applies: yeast LPY9, array of yeast ORF sequences; SEQ ID NO: 5. The protocol: The yeast strain LPY9 (MATa, leu2, Ura3, his3) is grown overnight and inoculated into SD+ hul (histidine, uracil, leucine) media. Aliquots of the culture are treated with ketoconazole (an inhibitor of C-14α demethylase (P45014DM) enzyme) at 10 ug/ml, 50 ug/ml, and […], respectively. A sample of each is collected at 2, 4, and 6 hours after treatment. Control samples treated with DMSO (dimethyl sulfoxide-solvent for ketoconazole) but not with ketoconazole are also collected. Total RNA from each sample is collected by conventional methods, such as a Zirconium/Silica bead binding and extraction method. The sequence content of each sample is analyzed and compared by hybridizing each of them to a number of yeast ORF sequences immobilized on a Nylon membrane in an array format.
Using this method, over 600 RNA transcripts levels are shown to be altered.

For `CC(=O)N1CCN(c2ccc(OCC3COC(Cn4ccnc4)(c4ccc(Cl)cc4Cl)O3)cc2)CC1` (stereo not shown) [ketoconazole], the “Effect of ketoconazole addition on yeast HES1 transcript level” value was “particularly effected”.
